Read-outs that look alike come from different tables or passages of the source.
Tests used:
[1] = system: SK-MEL-5; experiment: NCI DTP in-vitro dose response, Melanoma; assay type: cell-based
[2] = system: MALME-3M; experiment: NCI DTP in-vitro dose response, Melanoma; assay type: cell-based
[3] = system: UACC-62; experiment: NCI DTP in-vitro dose response, Melanoma; assay type: cell-based
[4] = system: LOX IMVI; experiment: NCI DTP in-vitro dose response, Melanoma; assay type: cell-based
[5] = system: UACC-257; experiment: NCI DTP in-vitro dose response, Melanoma; assay type: cell-based
[6] = system: M14; experiment: NCI DTP in-vitro dose response, Melanoma; assay type: cell-based
[7] = system: SK-MEL-28; experiment: NCI DTP in-vitro dose response, Melanoma; assay type: cell-based
[8] = system: UO-31; experiment: NCI DTP in-vitro dose response, Renal Cancer; assay type: cell-based
[9] = system: ACHN; experiment: NCI DTP in-vitro dose response, Renal Cancer; assay type: cell-based
[10] = system: 786-0; experiment: NCI DTP in-vitro dose response, Renal Cancer; assay type: cell-based
[11] = system: CAKI-1; experiment: NCI DTP in-vitro dose response, Renal Cancer; assay type: cell-based
[12] = system: TK-10; experiment: NCI DTP in-vitro dose response, Renal Cancer; assay type: cell-based
[13] = system: A498; experiment: NCI DTP in-vitro dose response, Renal Cancer; assay type: cell-based
[14] = system: SN12C; experiment: NCI DTP in-vitro dose response, Renal Cancer; assay type: cell-based
[15] = system: DU-145
[16] = system: PC-3
[17] = system: HS 578T; experiment: NCI DTP in-vitro dose response, Breast Cancer; assay type: cell-based; details: HS 578T
[18] = system: MDA-MB-231/ATCC; experiment: NCI DTP in-vitro dose response, Breast Cancer; assay type: cell-based; details: MDA-MB-231/ATCC
[19] = system: NCI/ADR-RES; experiment: NCI DTP in-vitro dose response, Breast Cancer; assay type: cell-based; details: NCI/ADR-RES
[20] = system: BT-549; experiment: NCI DTP in-vitro dose response, Breast Cancer; assay type: cell-based
[21] = system: T-47D; experiment: NCI DTP in-vitro dose response, Breast Cancer; assay type: cell-based; details: T-47D
[22] = system: MDA-MB-435; experiment: NCI DTP in-vitro dose response, Breast Cancer; assay type: cell-based
[23] = system: MCF7; experiment: NCI DTP in-vitro dose response, Breast Cancer; assay type: cell-based
[24] = read-out: LC50 (the source's name)

CCc1nc2ccc3c(c2[nH]1)C(=O)c1ccccc1C3=O [TABLE 4-5]
CC50 [1]: > 100 µM
TGI [1]: 8.36E−6
Percent Growth ([1]; Log10 Concentration −4.0): −19%
Percent Growth ([1]; Log10 Concentration −5.0): −5%
Percent Growth ([1]; Log10 Concentration −6.0): 59%
Percent Growth ([1]; Log10 Concentration −7.0): 42%
Percent Growth ([1]; Log10 Concentration −8.0): 44%
CC50 [2]: > 100 µM
TGI [2]: 8.69E−5
Percent Growth ([2]; Log10 Concentration −4.0): −2%
Percent Growth ([2]; Log10 Concentration −5.0): 26%
Percent Growth ([2]; Log10 Concentration −6.0): 83%
Percent Growth ([2]; Log10 Concentration −7.0): 84%
Percent Growth ([2]; Log10 Concentration −8.0): 87%
GI50 ([2]; read-out: GI50): 3.75 µM
CC50 [3]: > 100 µM
TGI [3]: >1.00E−4
Percent Growth ([3]; Log10 Concentration −4.0): 26%
Percent Growth ([3]; Log10 Concentration −5.0): 41%
Percent Growth ([3]; Log10 Concentration −6.0): 85%
Percent Growth ([3]; Log10 Concentration −7.0): 92%
Percent Growth ([3]; Log10 Concentration −8.0): 83%
GI50 ([3]; read-out: GI50): 6.18 µM
CC50 [4]: > 100 µM
TGI [4]: >1.00E−4
Percent Growth ([4]; Log10 Concentration −4.0): 10%
Percent Growth ([4]; Log10 Concentration −5.0): 33%
Percent Growth ([4]; Log10 Concentration −6.0): 83%
Percent Growth ([4]; Log10 Concentration −7.0): 91%
Percent Growth ([4]; Log10 Concentration −8.0): 101%
GI50 ([4]; read-out: GI50): 4.61 µM
CC50 [5]: > 100 µM
TGI [5]: >1.00E−4
Percent Growth ([5]; Log10 Concentration −4.0): 18%
Percent Growth ([5]; Log10 Concentration −5.0): 66%
Percent Growth ([5]; Log10 Concentration −6.0): 96%
Percent Growth ([5]; Log10 Concentration −7.0): 84%
Percent Growth ([5]; Log10 Concentration −8.0): 84%
GI50 ([5]; read-out: GI50): 21.6 µM
CC50 [6]: > 100 µM
TGI [6]: >1.00E−4
Percent Growth ([6]; Log10 Concentration −4.0): 25%
Percent Growth ([6]; Log10 Concentration −5.0): 50%
Percent Growth ([6]; Log10 Concentration −6.0): 78%
Percent Growth ([6]; Log10 Concentration −7.0): 95%
Percent Growth ([6]; Log10 Concentration −8.0): 88%
GI50 ([6]; read-out: GI50): 10.2 µM
CC50 [7]: > 100 µM
TGI [7]: 6.36E−5
Percent Growth ([7]; Log10 Concentration −4.0): −12%
Percent Growth ([7]; Log10 Concentration −5.0): 48%
Percent Growth ([7]; Log10 Concentration −6.0): 79%
Percent Growth ([7]; Log10 Concentration −7.0): 84%
Percent Growth ([7]; Log10 Concentration −8.0): 89%
GI50 ([7]; read-out: GI50): 8.58 µM

CCc1nc2ccc3c(c2[nH]1)C(=O)c1ccccc1C3=O [TABLE 4-7]
CC50 [8]: > 100 µM
TGI [8]: >1.00E−4
Percent Growth ([8]; Log10 Concentration −5.0): 15%
Percent Growth ([8]; Log10 Concentration −6.0): 67%
Percent Growth ([8]; Log10 Concentration −7.0): 83%
Percent Growth ([8]; Log10 Concentration −8.0): 88%
GI50 ([8]; read-out: GI50): 2.12 µM
CC50 [9]: > 100 µM
TGI [9]: 5.46E−5
Percent Growth ([9]; Log10 Concentration −4.0): −5%
Percent Growth ([9]; Log10 Concentration −5.0): 14%
Percent Growth ([9]; Log10 Concentration −6.0): 62%
Percent Growth ([9]; Log10 Concentration −7.0): 85%
Percent Growth ([9]; Log10 Concentration −8.0): 94%
GI50 ([9]; read-out: GI50): 1.77 µM
CC50 [10]: > 100 µM
TGI [10]: >1.00E−4
Percent Growth ([10]; Log10 Concentration −4.0): 38%
Percent Growth ([10]; Log10 Concentration −5.0): 68%
Percent Growth ([10]; Log10 Concentration −6.0): 95%
Percent Growth ([10]; Log10 Concentration −7.0): 102%
Percent Growth ([10]; Log10 Concentration −8.0): 104%
GI50 ([10]; read-out: GI50): 40.2 µM
CC50 [11]: > 100 µM
TGI [11]: >1.00E−4
Percent Growth ([11]; Log10 Concentration −4.0): 9%
Percent Growth ([11]; Log10 Concentration −5.0): 20%
Percent Growth ([11]; Log10 Concentration −6.0): 76%
Percent Growth ([11]; Log10 Concentration −7.0): 91%
Percent Growth ([11]; Log10 Concentration −8.0): 97%
GI50 ([11]; read-out: GI50): 2.9 µM
CC50 [12]: > 100 µM
TGI [12]: >1.00E−4
Percent Growth ([12]; Log10 Concentration −4.0): 3%
Percent Growth ([12]; Log10 Concentration −5.0): 39%
Percent Growth ([12]; Log10 Concentration −6.0): 75%
Percent Growth ([12]; Log10 Concentration −7.0): 113%
Percent Growth ([12]; Log10 Concentration −8.0): 95%
GI50 ([12]; read-out: GI50): 4.88 µM
CC50 [13]: > 100 µM
TGI [13]: 4.27E−5
Percent Growth ([13]; Log10 Concentration −4.0): −20%
Percent Growth ([13]; Log10 Concentration −5.0): 34%
Percent Growth ([13]; Log10 Concentration −6.0): 74%
Percent Growth ([13]; Log10 Concentration −7.0): 97%
Percent Growth ([13]; Log10 Concentration −8.0): 94%
GI50 ([13]; read-out: GI50): 3.89 µM
CC50 [14]: > 100 µM
TGI [14]: >1.00E−4
Percent Growth ([14]; Log10 Concentration −4.0): 18%
Percent Growth ([14]; Log10 Concentration −5.0): 46%
Percent Growth ([14]; Log10 Concentration −6.0): 74%
Percent Growth ([14]; Log10 Concentration −7.0): 80%
Percent Growth ([14]; Log10 Concentration −8.0): 74%
GI50 ([14]; read-out: GI50): 7.05 µM

O=C1c2ccccc2C(=O)c2c1ccc1nccnc21 [TABLE 5-8]
GI50 ([15]; DU-145): 11.4 µM
TGI ([15]; DU-145): 3.43E−5
Percent Growth ([15]; DU-145, Log10 Concentration −4.0): −49%
Percent Growth ([15]; DU-145, Log10 Concentration −5.0): 56%
Percent Growth ([15]; DU-145, Log10 Concentration −6.0): 96%
Percent Growth ([15]; DU-145, Log10 Concentration −7.0): 95%
Percent Growth ([15]; DU-145, Log10 Concentration −8.0): 102%
CC50 ([15]; read-out: LC50, DU-145): > 100 µM
TGI ([16]; PC-3): >1.00E−4
Percent Growth ([16]; PC-3, Log10 Concentration −4.0): 50%
Percent Growth ([16]; PC-3, Log10 Concentration −5.0): 50%
Percent Growth ([16]; PC-3, Log10 Concentration −6.0): 69%
Percent Growth ([16]; PC-3, Log10 Concentration −7.0): 92%
Percent Growth ([16]; PC-3, Log10 Concentration −8.0): 101%
CC50 ([16]; read-out: LC50, PC-3): > 100 µM

O=C1c2ccccc2C(=O)c2c1ccc1nccnc21 [TABLE 5-9]
TGI [17]: 9.14E−5
Percent Growth ([17]; Log10 Concentration −4.0): −2%
Percent Growth ([17]; Log10 Concentration −5.0): 59%
Percent Growth ([17]; Log10 Concentration −6.0): 81%
Percent Growth ([17]; Log10 Concentration −7.0): 90%
Percent Growth ([17]; Log10 Concentration −8.0): 88%
GI50 ([17]; read-out: GI50): 14.1 µM
CC50 [17, 24]: > 100 µM
TGI [18]: >1.00E−4
Percent Growth ([18]; Log10 Concentration −4.0): 14%
Percent Growth ([18]; Log10 Concentration −5.0): 64%
Percent Growth ([18]; Log10 Concentration −6.0): 85%
Percent Growth ([18]; Log10 Concentration −7.0): 88%
Percent Growth ([18]; Log10 Concentration −8.0): 100%
GI50 ([18]; read-out: GI50): 19.1 µM
CC50 [18, 24]: > 100 µM
TGI [19]: >1.00E−4
Percent Growth ([19]; Log10 Concentration −4.0): 8%
Percent Growth ([19]; Log10 Concentration −5.0): 38%
Percent Growth ([19]; Log10 Concentration −6.0): 87%
Percent Growth ([19]; Log10 Concentration −7.0): 92%
Percent Growth ([19]; Log10 Concentration −8.0): 95%
GI50 ([19]; read-out: GI50): 5.68 µM
CC50 [19, 24]: > 100 µM
TGI ([20]; BT-549): 9.35E−5
Percent Growth ([20]; BT-549, Log10 Concentration −4.0): −2%
Percent Growth ([20]; BT-549, Log10 Concentration −5.0): 55%
Percent Growth ([20]; BT-549, Log10 Concentration −6.0): 83%
Percent Growth ([20]; BT-549, Log10 Concentration −7.0): 85%
Percent Growth ([20]; BT-549, Log10 Concentration −8.0): 95%
GI50 ([20]; BT-549, read-out: GI50): 12.2 µM
CC50 ([20]; BT-549, read-out: LC50 (the source's name)): > 100 µM
TGI [21]: 7.51E−5
Percent Growth ([21]; Log10 Concentration −4.0): −8%
Percent Growth ([21]; Log10 Concentration −5.0): 56%
Percent Growth ([21]; Log10 Concentration −6.0): 71%
Percent Growth ([21]; Log10 Concentration −7.0): 80%
Percent Growth ([21]; Log10 Concentration −8.0): 85%
GI50 ([21]; read-out: GI50): 12.6 µM
CC50 [21, 24]: > 100 µM
TGI ([22]; MDA-MB-435): 2.37E−5
Percent Growth ([22]; MDA-MB-435, Log10 Concentration −4.0): −95%
Percent Growth ([22]; MDA-MB-435, Log10 Concentration −5.0): 57%
Percent Growth ([22]; MDA-MB-435, Log10 Concentration −6.0): 101%
Percent Growth ([22]; MDA-MB-435, Log10 Concentration −7.0): 97%
Percent Growth ([22]; MDA-MB-435, Log10 Concentration −8.0): 101%
GI50 ([22]; MDA-MB-435, read-out: GI50): 11.1 µM
CC50 ([22]; MDA-MB-435, read-out: LC50 (the source's name)): 50.4 µM
TGI ([23]; MCF7): 2.98E−5
Percent Growth ([23]; MCF7, Log10 Concentration −4.0): −29%
Percent Growth ([23]; MCF7, Log10 Concentration −5.0): 27%
Percent Growth ([23]; MCF7, Log10 Concentration −6.0): 45%
Percent Growth ([23]; MCF7, Log10 Concentration −7.0): 80%
Percent Growth ([23]; MCF7, Log10 Concentration −8.0): 81%
GI50 ([23]; MCF7, read-out: GI50): 0.722 µM
CC50 ([23]; MCF7, read-out: LC50 (the source's name)): > 100 µM
